From US7820106B2, “Sensor platform, apparatus incorporating the platform and process using the platform” (Novartis AG, priority 1999, dated 2010)
Where a name gives a salt, the structure may show the parent alone. {Cy5} = Cy5 fluorescent dye label

Key:
[1] = tested on: cMM (capture mismatch) oligonucleotide; assay: Oligonucleotide microchip hybridization (SNP discrimination), cMM capture spots; assay type: binding; settings: 30 pM analyte, 30 min incubation, room temperature, fluorescence at resonance position
Procedure: (§1) Sensor platforms (dimensions 18×18 mm2) of the type described with reference to FIG. 2 we first sonicated twice in chlororform (FLUKA, “purum”) and subsequently twice in isopropanol (Merck, “Uvasol”), each 15 min. […] O-xylene was heated to 75° C. […] (stirring). Subsequently, the platforms were washed three times with fresh acetonitrile (Fluka, “HPLC grade”) each for 15 min. Finally the platforms were dried and stored under vacuum. b. Immobilization of Capture Elements
(§2) Two different amino-modified oligonucleotides (capture probes) were printed in a checkerboard-like layout (5×5=25 spots) onto the silanized platforms. […]
(§3) The concentration of the analyte solutions was 30 pM each. f. […] After 30 min of incubation, the platform was washed with 1 ml of HB and a fluorescence image (“PM” in FIG. 9a) was taken in the resonance position of the chip. Subsequently, the bound fluorescence labeled oligonucleotides were removed (stripped) by injection of 2×1 ml of an aqueous 50% urea solution with 2 min of delay between the injections. After additional 2 min the chip was washed by injection of 2×1 ml HB with 2 min delay between the injections and a fluorescence image (“regeneration” in FIG. 9b) was taken in the resonance position of the chip. […] After 30 min of incubation, the platform was again washed with 1 ml of 1B and a fluorescence image (“MM” in FIG. 9c) was taken in the resonance position of the chip. […]

[2] = tested on: cPM and cMM capture oligonucleotides; assay: Oligonucleotide microchip SNP discrimination, cPM versus cMM spots; assay type: binding; settings: 30 pM analyte, 30 min incubation, room temperature
Procedure: as §1
Two different amino-modified oligonucleotides (capture probes) were printed in a checkerboard-like layout (5×5=25 spots) onto the silanized platforms. A GMS 417 ring-pin arrayer was used for the printing (Genetic Microsystems, Boston, Mass.). The concentration of the oligonucleotides used as capture molecules was 100 nmol/ml. Diameter of the spots was 125 micrometer with 500 micrometer centre-to-centre distance. The 2 oligonucleotides were called cPM (“capture perfect match”) and cMM (“capture mismatch”) and differ only in one base:
cPM and cMM were labeled with an amino group at the 5′ end which enables covalent binding of the oligonucleotides to the epoxy-functionalized platforms. […] Next day the chips were dried and then washed with 1 ml of aqueous 50% urea solution. Alternatively, an aqueous bovine serum albumine solution (BSA, 1 mg/ml) was used. After blocking the chips were flushed with deionized water and then dried with nitrogen flow. c. Detection Set-Up The CCD set-up described in the previous example was used. d. Chip Cartridge The cartridge described in the previous example was used. e. Analytes/Samples […]
The concentration of the analyte solutions was 30 pM each. f. […] After 30 min of incubation, the platform was washed with 1 ml of HB and a fluorescence image (“PM” in FIG. 9a) was taken in the resonance position of the chip. Subsequently, the bound fluorescence labeled oligonucleotides were removed (stripped) by injection of 2×1 ml of an aqueous 50% urea solution with 2 min of delay between the injections. After additional 2 min the chip was washed by injection of 2×1 ml HB with 2 min delay between the injections and a fluorescence image (“regeneration” in FIG. 9b) was taken in the resonance position of the chip. […] After 30 min of incubation, the platform was again washed with 1 ml of 1B and a fluorescence image (“MM” in FIG. 9c) was taken in the resonance position of the chip. […] Data Processing The mean intensity of the 2 different groups of capture spots (cPM and cMM) was calculated for both experiments (incubation of 30 pM PM analyte and 30 pM MM analyte). In addition, the difference of the mean intensity cPM-cMM and the ratio cPM/cMM was calculated. h. […]

[3] = tested on: cPM (capture perfect match) oligonucleotide; assay: Oligonucleotide microchip hybridization (SNP discrimination), cPM capture spots; assay type: binding; settings: 30 pM analyte, 30 min incubation, room temperature, fluorescence at resonance position
Procedure: as §1, §2, §3

[4] = tested on: CYP 450 2B2 (rat); assay: Gene expression analysis on ER chip: CYP 450 induction in rat liver; settings: rat liver cDNA, 80 mg/kg daily on 4 consecutive days, normalized treated/control, mean of 10 replicates
Procedure: (§4) Sensor platforms (dimensions 18×18 mm^2) of the type described with reference to FIG. 2 wee first sonicated twice in chloroform (FLUKA, “purriss.”) and subsequently twice in isopropanol (Merck, “Uvasol”); each for 15 min. The platform were then dried in vacuum and cleaned in a UV cleaner for 30 min (Boeckel industries Inc, model 135500). O-xylene was heated to 75° C. (stirring) and 2% v/v 3-glycidoxypropyl trimethoxysilane (Fluka, “purum”) as well as 0.2% v/v N-ethyldiisopropylamine (Fluka, “purum”) were added to the heated solvent (stirring). The platforms were mounted into racks and then incubated for 7 h in the solution at 75° C. (stirring). Subsequently, the platforms were sonicated three times in fresh acetonitrile (Fluka, “HPLC grade”), each for 15 min. The platforms were then sonicated in a solution of 2% v/v 3-amino-1-propanol (Fluka, “purum”) in acetonitrile for 15 min and then incubated in the same solution over night at room temperature (stirring). Next day, the platforms were first sonicated three times for 15 min in fresh isopropanol (Fluka, “HPLC grade”) and then three times for 15 min in flesh methanol (Merck, “Uvasol”). Finally, the platforms were dried and stored in vacuum. b) Immobilization of Recognition Elements Arrays consisting of 10 different cDNAs (each cDNA 10 replicates: CYP 450 1A1, CYP 450 2B1 EST., CYP 450 2B1, CYP 450 2B2, CYP 450 3A1 human, CYP 450 3A2, CYP 450 4A1, β-actin, GAPDH, external standard) were printed on the platforms with an ink-jet printer (Microdrop GmbH, Norderstedt, Germany). The concentration of the cDNA solutions was 50 ng/μL. The diameter (10 ink-jet droplets/position) was about 250 μm and pitch of the spots was about 500 μm. Therefore, the overall dimension of the 10×10 arrays was about 5×5 mm^2. The arrays were printed in the centre of the platforms with the dimensions (18×18 mm^2). Subsequently, the platforms were incubated over night in a closed container in saturated water vapor atmosphere. Next day, the incubated chips can be baked for a defined period, say 1 minute at 80° C.

[5] = tested on: CYP 450 2B1 (rat); assay: as above; settings: rat liver cDNA, 80 mg/kg daily on 4 consecutive days, normalized treated/control, mean of 10 replicates
Procedure: as §4

[6] = tested on: CYP 450 4A1 (rat); assay: as above; settings: rat liver cDNA, 80 mg/kg daily on 4 consecutive days, normalized treated/control, mean of 10 replicates
Procedure: as §4

[7] = tested on: CYP 450 3A2 (rat); assay: as above; settings: rat liver cDNA, 80 mg/kg daily on 4 consecutive days, normalized treated/control, mean of 10 replicates
Procedure: as §4

[8] = tested on: CYP 450 2B1 EST.(rat); assay: as above; settings: rat liver cDNA, 80 mg/kg daily on 4 consecutive days, normalized treated/control, mean of 10 replicates
Procedure: as §4

[9] = tested on: CYP 450 1A1 (rat); assay: as above; settings: rat liver cDNA, 80 mg/kg daily on 4 consecutive days, normalized treated/control, mean of 10 replicates
Procedure: as §4

[10] = tested on: GAPDH (rat); assay: as above; settings: rat liver cDNA, 80 mg/kg daily on 4 consecutive days, normalized treated/control, mean of 10 replicates
Procedure: as §4

[11] = tested on: CYP 450 3A1 (human); assay: as above; settings: rat liver cDNA, 80 mg/kg daily on 4 consecutive days, normalized treated/control, mean of 10 replicates
Procedure: as §4

[12] = tested on: β-actin (rat); assay: as above; settings: rat liver cDNA, 80 mg/kg daily on 4 consecutive days, normalized treated/control, mean of 10 replicates
Procedure: as §4

Compound	mean intensity, cMM spots [1] [counts]	difference of the mean intensity cPM − cMM [2] [counts]	ratio cPM/cMM of mean intensity [2]	mean intensity, cPM spots [3] [counts]	Fold change CYP 450 2B2 (rat) [4]	Fold change CYP 450 2B1 (rat) [5]	Fold change CYP 450 4A1 (rat) [6]	Fold change CYP 450 3A2 (rat) [7]	Fold change CYP 450 2B1 EST.(rat) [8]	Fold change CYP 450 1A1 (rat) [9]	Fold change GAPDH (rat) [10]	Fold change CYP 450 3A1 (human) [11]	Fold change β-actin (rat) [12]
Cy5-5′GTGTTGAGGTGT3′ (NTGTTGAGGTGT; 5' {Cy5}, sugars by position, backbone and the base at N not given here) [MM]	2075	−1371	0.34	704	–	–	–	–	–	–	–	–	–
CCC1(c2ccccc2)C(=O)NC(=O)NC1=O [phenobarbital, sodium salt]	–	–	–	–	32	25	1.6	2.5	16	1.6	2.3	3.2	2.1
Cy5-5′GTGTTAAGGTGT3′ (NTGTTAAGGTGT; 5' {Cy5}, sugars by position, backbone and the base at N not given here) [PM]	24	1116	48	1140	–	–	–	–	–	–	–	–	–
